A melting point compilation (Tetko et al.; mined from patent text by program, amines drawn as free bases though some values may be those of a salt)

| SMILES | melting point [°C] |
| --- | --- |
| CCn1c(=O)n(OCc2ccccc2)c(=O)c2cc(F)c(N3CCC(NC(=O)OC(C)(C)C)C3)nc21 (centres undefined) | 157 to 159 |
| Nc1nc2ccc(OCC(F)(F)C(F)(F)F)cc2s1 | 147 |
| CCCCNC(=O)NS(=O)(=O)CCc1c(C)nn(C)c1-n1ccc2cc(C(F)(F)F)cnc21 | 163 to 164 |
| CCCCCC(CCCCC)n1c(=O)sc2c(=O)[nH]c(N)nc21 | > 195 |
| CC1(C)CC(S(=O)C(F)c2c(F)cccc2F)=NO1 (centres undefined) | 87 |
| C=CCN(C(C)=O)c1cccc(C(=O)C=CN(C)C)c1 | 91 to 94 |
| CCOCC1Cc2cc(S(N)(=O)=O)c(Cl)c(Cl)c2O1 (centres undefined) | 148 to 149 |
| COc1cc2ncc(N[C@H]3CC[C@H](C(=O)OC)CC3)nc2cc1OC | 68 to 80 |
| CN1C(=O)c2cscc2N(C)c2ccccc21 | 101 to 102 |
| COC1=C(OC)C(=O)C(CCCCCCCCCCCCCCCCCC(=O)O)=C(C)C1=O | 77 to 79 |
| O=C(OC1CCCCC1)c1ncn2c1[C@@H]1CCN1C(=O)c1c(I)cccc1-2 | 124 to 125 |
| CCOC(=O)c1cccc(-c2nc(-c3ccc(C(C)(C)C)cc3)cs2)c1 | 96 to 97 |
| COc1ccc(-c2cnn3c(N)c(-c4ccc(F)c(Cl)c4)c(C)nc23)cc1OC | 235 to 238 |
| CC(C(=O)O)c1ccc2c(c1)C(=O)Cc1c(Cl)cccc1S2 (centres undefined) | 163 to 164 |
| COc1cc(F)nc(NC(=O)NS(=O)(=O)c2ccccc2OS(C)(=O)=O)n1 | 168 to 169 |
| COCCn1nnnc1C1(c2cccc(C(F)(F)F)c2)C=CC(O)=CC1O (centres undefined) | 115 to 156 |
| O=C(O)C1Nc2ccccc2-c2c([N+](=O)[O-])cnn21 (centres undefined) | 203 to 205 |
| c1cn(CCCc2ccc(OCc3coc(-c4ccc(OCc5ccc6c(c5)OCO6)cc4)n3)cc2)cn1 | 124 to 125 |
| O=C(NCc1ccn(C2=CC3=C(CC2)CCc2[nH]c(=O)c(=O)n(O)c23)c1)Nc1ccccc1 | > 250 |
| CCOC(=O)CN1c2ccccc2Oc2ccccc21 | 96 to 97 |

| SMILES | melting point [°C] |
| --- | --- |
| Cc1ccc(S(=O)(=O)N2[C@@H](CCl)CC[C@H]2c2ccc(F)cc2)cc1 (racemic) | 130 |
| C/C(=N\OC(=O)c1ccc(CN2CCOCC2)cc1)[C@H]1CC[C@H]2[C@@H]3CCC4=CC(=O)CC[C@]4(C)[C@H]3CC[C@]12C | 166 to 168 |
| O=C(Nc1cnc2sc(CO)nc2c1)c1cc2cc(C(F)(F)F)ccc2n1Cc1nccs1 | 282 to 283 |
| O=C(Nc1cnc(N2CCCC2)cc1C(F)(F)F)c1cc2cc(C(F)(F)F)cnc2n1Cc1cccc(F)c1 | 207 to 208 |
| CCCn1ccc2c(c1=O)C(c1ccccc1)C(C(=O)OCC)=C(C)N2 (centres undefined) | 215 to 217 |
| COC(=O)C1CCc2c([nH]c3ccc(Cl)cc23)C1 (centres undefined) | 175 to 176 |
| CCOC(=O)c1cc(C)c2nc(CC)[nH]c2n1 | 151 to 153 |
| O=C(Nc1cc(NC(=O)C2CCCCC2)cc(NC(=O)C2CCCCC2)c1)C1CCCCC1 | 286 |
| O=C(N[C@H]1CCc2ccc(O)cc2C1)[C@H](O)c1ccc(OCc2ccccc2)cc1 | 137 to 139 |
| COc1ccc(NC(=O)NCCCOc2cccc(CN3CCCCC3)c2)cc1 | 111 to 112 |
| Oc1nc2ccc3nsnc3c2nc1O | > 300 |
| CNc1ncnc2c1ncn2C1CC(F)C(CO)O1 (centres undefined) | 100 to 103 |
| CC(CCc1cccc(F)c1)NCc1c(CO)ccc(O)c1CO (centres undefined) | 114 to 117 |
| CC(=O)Nc1ccc2[nH]c(CO)cc2c1 | 161 |
| CCOc1ccc2[nH]cc(/C(C#N)=C/c3cccnc3)c2c1 | 196 |
| CN(C)c1ccc2nnc(-c3ncc([N+](=O)[O-])n3C)n2n1 | 233 to 236 |
| O=C1NC(=O)C(=Cc2ccc(OCC3CN(c4ccccn4)CCO3)cc2)S1 (centres undefined) | 188 |
| O=C1CC[C@]2(O)C[C@H]1OC2=O | 144 to 145 |
| COC(=O)c1ccc(-c2cn(Cc3cccnc3)c3c2CCc2nc4c(nc2-3)C(C)(C)CCC4(C)C)cc1 | 245 to 247 |
